The text below walks through data of publication PMC13192270, “RhlR quorum-sensing receptor ligand sensitivity regulates the differential expression of phenazine genes in Pseudomonas aeruginosa” (Journal of Bacteriology, 2026).

Holding throughout (assay): E. coli prhlA-luxCDABE luciferase reporter assay
Common to all, as to assay type: cell-based, Escherichia coli
On the technique in general: A reporter such as luciferase makes a cellular process visible.

One assay addresses T1, RhlR (T58F) (Pseudomonas aeruginosa, UniProt P54292, T58F).
T1 construct: expressed in transfected cells; host or cells: E. coli carrying pBAD-A-rhlR mutant, pCS26-prhlA-luxCDABE and pACYC-pqsE or empty pACYC
T1 sequence (P54292 1-241 T58F): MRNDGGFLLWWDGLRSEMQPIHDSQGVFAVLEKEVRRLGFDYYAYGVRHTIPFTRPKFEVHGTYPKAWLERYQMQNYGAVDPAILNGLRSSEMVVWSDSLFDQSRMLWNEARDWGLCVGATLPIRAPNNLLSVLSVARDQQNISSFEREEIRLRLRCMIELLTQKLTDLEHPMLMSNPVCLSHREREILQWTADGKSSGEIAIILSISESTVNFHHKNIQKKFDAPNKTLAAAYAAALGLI
The source says: (§1) Previous analysis of the RhlR LBP focused on highly conserved residues that were known from other AHL-binding proteins to be important contacts for AHL molecules, particularly the lactone head group. We performed conservation analyses on 300 LuxR-type receptors to determine variable and moderately conserved residues in the LBP (Fig. 1B) and, in conjunction with our previously determined experimental structure of WT RhlR bound to the synthetic agonist mBTL, used for docking C4- and C6HSL. Based on our docking simulations, C4- and C6HSL occupy a similar position in the LBP as mBTL, a highly efficacious activator of RhlR (Fig. 1C; Fig. S1). We targeted residues A44, G46, T58, L69, Y72, D81, I84, W96, and W108 (Fig. 1B and C). These residues were selected because of their proximity to the acyl tail of C4HSL, as well as the differences in conservation that are observed at these sites. We used an E. coli luciferase reporter assay to monitor ligand-dependent activation of WT RhlR and RhlR variants. WT RhlR and RhlR variants were expressed under the control of an arabinose-inducible promoter (Fig. S2). Transcription was monitored by light production via the expression of the luxCDABE operon controlled by the RhlR-dependent promoter of rhlA. Binding of RhlR to the rhlA promoter is highly dependent on the C4HSL-RhlR interaction, based on ChIP-seq analyses performed in P. aeruginosa as well as previously published E. coli reporter systems ([34], [39]). After expressing WT RhlR and RhlR variants in the E. coli reporter system, we performed dose response assays using C4HSL to calculate the concentration of C4HSL required to activate the reporter system to 50% maximum levels (EC50 value; Table 1). As expected, transcription activation by WT RhlR increased with increased C4HSL levels, with an EC50 value of ~2 µM. We observed a range of responses. Figure 1C depicts the targeted residues, which are colored based on the effect of amino acid substitution.
(§2) RhlR requires the accessory-binding protein, PqsE, for maximal activity. To determine if PqsE expression altered the activation of RhlR variants, we assessed AHL-dependent RhlR activation of the prhlA-luxCDABE reporter in the presence of a third plasmid that constitutively expresses PqsE in E. coli. […] RhlR variants that were still active but with increased EC50 values for C4HSL could have their activity enhanced by PqsE. […] Thus, alterations to the LBP can diminish the additive effect of PqsE-dependent transcription, indicating a potential role of allosteric conformational changes dependent on ligand occupancy. […] RhlR variants at residues I84 and W108 could not be activated by C4HSL, and thus, light levels remained low at all concentrations that were tested. Unlike the aforementioned variants, RhlR I84M/W and RhlR W108F/Y were activated by the expression of PqsE (Fig. S4).
(§3) All E. coli strains in this study were grown overnight with shaking in 5 mL Luria-Bertani (LB) media supplemented with 100 µg/mL ampicillin, 50 µg/mL kanamycin, and 15 µg/mL tetracycline at 37°C overnight. Overnight cultures were diluted 1:100 into fresh media, grown at 37°C with shaking for 2 h until reaching OD600 = 0.4. Cultures were induced with a final concentration of 0.1% arabinose, and 198 μL of the induced culture was mixed with 2 μL of C4HSL dilutions in a clear-bottom, black-opaque 96-well plate (Corning) and grown at 37°C with shaking for 4 h. The C4HSL dilution series was performed 1:1 in dimethyl sulfoxide (DMSO) with a top final concentration of 10 μM. Luminescence and optical density were recorded using a Glomax (Promega) plate reader.

The target of a further assay is T2, RhlR (T58I) (Pseudomonas aeruginosa, UniProt P54292, T58I).
T2 construct: expressed in transfected cells; host or cells: E. coli carrying pBAD-A-rhlR mutant, pCS26-prhlA-luxCDABE and pACYC-pqsE or empty pACYC
T2 sequence (P54292 1-241 T58I): T1 sequence (P54292 1-241 T58F) with F58I
From the text: as §1, §2, §3

For a further assay, the target named is T3, RhlR (T58L) (Pseudomonas aeruginosa, UniProt P54292, T58L).
T3 construct: expressed in transfected cells; host or cells: E. coli carrying pBAD-A-rhlR mutant, pCS26-prhlA-luxCDABE and pACYC-pqsE or empty pACYC
T3 sequence (P54292 1-241 T58L): T1 sequence (P54292 1-241 T58F) with F58L
From the text: as §1, §2, §3

Positions count from the first letter of the chain named.

Regarding `CCCC(=O)N[C@H]1CCOC1=O` [C4HSL, N-butyryl-L-homoserine lactone], the EC50 (in general, the midpoint of the concentration-response curve) stood at 3210 nM on RhlR (T58F) (Vector (no pqsE)); 198 nM on RhlR (T58F) (pqsE co-expressed); 1820 nM at RhlR (T58I) (Vector (no pqsE)); 120 nM on RhlR (T58I) (pqsE co-expressed); 854 nM on RhlR (T58L) (Vector (no pqsE)); 99 nM at RhlR (T58L) (pqsE co-expressed).
